According to PMC6445123 (Scientific Reports, 2019):
Positions count from the first letter of the chain named. Values joined by “and” are separate entries in the source; they are usually repeats but may differ in a detail not shown here. Equal entries are not always repeated.

Columns and labels:
Format in all cases: biochemical
[1] = molecular target: T1, Casp6-WT-LS-SS (Homo sapiens, UniProt P55212); experiment: C13 dose-response and global-fit kinetics on Casp6-WT-LS-SS
T1 construct: obtained by co-expression and purification of LS and SS subunits of WT, L200A or K284A Casp6 from E. coli; His (C); made in house; host or cells: E. coli BL21(DE3)pLysS
T1 sequence (P55212 24-179 limits assumed): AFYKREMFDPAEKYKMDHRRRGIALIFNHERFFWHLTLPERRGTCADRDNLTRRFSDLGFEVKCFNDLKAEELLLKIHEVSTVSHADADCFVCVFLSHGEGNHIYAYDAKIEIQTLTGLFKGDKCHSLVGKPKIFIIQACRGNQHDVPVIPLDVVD
T1 sequence (P55212 194-293 limits assumed): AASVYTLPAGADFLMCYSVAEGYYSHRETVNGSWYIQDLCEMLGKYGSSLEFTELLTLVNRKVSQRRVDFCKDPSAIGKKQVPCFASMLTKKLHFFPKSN
Text: Figure 4 Compounds S10G and C13 inhibit Casp6 through a noncompetitive mode of inhibition. (a) Michaelis-Menten kinetic plots of Casp6 enzymatic activity in presence of 1% DMSO or increasing doses S10G (top) and C13 (bottom). Data points represent mean ± SD of three independent experiments. (b) Lineweaver-Burk plots of Casp6 inhibition with S10G (top) and C13 (bottom). Red circle indicates the point where lines converge. (c) The relationship between the slopes of lines in Lineweaver-Burk plot analyses in panel (b) and inhibitor concentration. (d) Plots of IC50 values for S10G (top) and C13 (bottom) with varying concentrations of Ac-VEID-AFC substrate. Data points represent mean ± SD from three independent experiments for each substrate concentration. (e) Binding model of C13 into CASP6 putative allosteric site, derived from molecular docking. Left: C13 (green sticks) occupies the putative allosteric site (white surface and lines; Ala-mutated residues L200 and K284 shown as purple sticks). Right: predicted interactions with Casp6 allosteric pocket residues (pink balls polar, circled blue or red for basic and acidic, respectively. Green balls = hydrophobic. Dotted-arrow: blue and green for backbone and sidechain hydrogen-bond interactions, respectively. Blue shade = solvent exposed area). […] Data points on the graph represent the mean ± SD, and calculated Ki values represent mean ± standard error (SE) from three independent experiments. […]
(§1) Compounds, S10G (2.5 µM, 4.2 µM, 10 µM), and C13 (5 µM, 14 µM, 50 µM), were added to 20 nM active site titrated Casp6 and enzyme activity was measured with eight different Ac-VEID-AFC substrate concentrations (5.0 μM–200 μM) using fluorescence-based Casp6 activity assay as above. The apparent KM and Vmax values were determined through nonlinear regression analysis of Michaelis-Menten plots (v vs. [S]) using GraphPad Prism 5. The inhibition mode was determined from the pattern of converging Lineweaver-Burk plots (1/v vs. 1/[S])[54]. […]

[2] = molecular target: T2, Casp6-K284A-LS-SS (Homo sapiens, UniProt P55212, K284A); experiment: C13 dose-response and global-fit kinetics on Casp6-K284A-LS-SS
T2 construct: obtained by co-expression and purification of LS and SS subunits of WT, L200A or K284A Casp6 from E. coli; His (C); made in house; host or cells: E. coli BL21(DE3)pLysS
T2 sequence (P55212 24-179 limits assumed): T1 sequence (P55212 24-179 limits assumed)
T2 sequence (P55212 194-293 K284A limits assumed): T1 sequence (P55212 194-293 limits assumed) with K91A
Text: (§2) Figure 4 Compounds S10G and C13 inhibit Casp6 through a noncompetitive mode of inhibition. (a) Michaelis-Menten kinetic plots of Casp6 enzymatic activity in presence of 1% DMSO or increasing doses S10G (top) and C13 (bottom). Data points represent mean ± SD of three independent experiments. (b) Lineweaver-Burk plots of Casp6 inhibition with S10G (top) and C13 (bottom). Red circle indicates the point where lines converge. (c) The relationship between the slopes of lines in Lineweaver-Burk plot analyses in panel (b) and inhibitor concentration. (d) Plots of IC50 values for S10G (top) and C13 (bottom) with varying concentrations of Ac-VEID-AFC substrate. Data points represent mean ± SD from three independent experiments for each substrate concentration. (e) Binding model of C13 into CASP6 putative allosteric site, derived from molecular docking. Left: C13 (green sticks) occupies the putative allosteric site (white surface and lines; Ala-mutated residues L200 and K284 shown as purple sticks). Right: predicted interactions with Casp6 allosteric pocket residues (pink balls polar, circled blue or red for basic and acidic, respectively. Green balls = hydrophobic. Dotted-arrow: blue and green for backbone and sidechain hydrogen-bond interactions, respectively. Blue shade = solvent exposed area). Dose-response curves of C13 for Casp6-WT and Casp6-K284A (f), and copurified LS and SS of Casp6-WT-LS-SS, Casp6-L200A-LS-SS, and Casp6-K284A-LS-SS (g). Data represent mean ± SD from at least three independent experiments. (h) Global fit of kinetics data to a noncompetitive (mixed) inhibition model for Casp6-WT-LS-SS (left panel, R^2 = 0.9635), Casp6-L200A-LS-SS (middle panel, R^2 = 0.9699), and Casp6-K284A-LS-SS (right panel, R^2 = 0.9794) in the presence of 0–50 µM C13. Data points on the graph represent the mean ± SD, and calculated Ki values represent mean ± standard error (SE) from three independent experiments.
To determine the importance of C13 interactions with L200 and K284 for C13 binding in the Casp6 allosteric pocket, we have generated Casp6-L200A and Casp6-K284A mutants and investigated inhibition with C13. In contrast to Casp6-WT, purified Casp6-L200A and Casp6-K284A underwent poor self-processing when overexpressed in E. coli from a construct encoding a full-length Casp6 (Fig. S5). Casp6-L200A partially self-processed at the TETD23 site generating full-length Casp6 and Casp6 without a prodomain (ΔCasp6). Casp6-K284A underwent complete processing at the TETD23 site but, in contrast to Casp6-WT, it only partially self-cleaved at the TEVD193 site generating ΔCasp6, LS-L and SS fragments (Fig. S5). […] Fully processed forms of Casp6-WT-LS-SS, Casp6-L200A-LS-SS, and Casp6-K284A-LS-SS were obtained by co-expression and purification of LS and SS subunits of WT, L200A or K284A Casp6 from E. coli (Fig. S5). […]
as §1

[3] = molecular target: T3, Casp6-L200A-LS-SS (Homo sapiens, UniProt P55212, L200A); experiment: C13 dose-response and global-fit kinetics on Casp6-L200A-LS-SS
T3 construct: obtained by co-expression and purification of LS and SS subunits of WT, L200A or K284A Casp6 from E. coli; His (C); made in house; host or cells: E. coli BL21(DE3)pLysS
T3 sequence (P55212 24-179 limits assumed): T1 sequence (P55212 24-179 limits assumed)
T3 sequence (P55212 194-293 L200A limits assumed): T1 sequence (P55212 194-293 limits assumed) with L7A
Text: as §2
To determine the importance of C13 interactions with L200 and K284 for C13 binding in the Casp6 allosteric pocket, we have generated Casp6-L200A and Casp6-K284A mutants and investigated inhibition with C13. […]
as §1

[4] = Ac-VEID-AFC hydrolysis, increasing substrate and C13 concentrations
[5] = global fit to noncompetitive (mixed) model, 0–50 µM C13, mean ± SE

- inhibition model (best global fit), Casp6-WT-LS-SS [1, 4]: noncompetitive (mixed) model inhibition
- IC50 ([1]; copurified LS and SS, read-out: IC50 of C13 for Casp6-WT-LS-SS (Fig. 4g)): 31.8 ± 6.7 µM
- Ki [1, 5]: 7.45 µM and 7.5 µM
- fold higher IC50 for Casp6-K284A-LS-SS compared to Casp6-WT-LS-SS [2]: 1.5 fold
- fold higher Ki for Casp6-K284A-LS-SS compared to Casp6-WT-LS-SS [2]: 1.6 fold
- inhibition model (best global fit), Casp6-K284A-LS-SS [2, 4]: noncompetitive (mixed) model inhibition
- IC50 ([2]; copurified LS and SS, read-out: IC50 of C13 for Casp6-K284A-LS-SS (Fig. 4g)): 47.8 ± 6 µM
- Ki [2, 5]: 11.8 µM
- fold lower IC50 for Casp6-L200A-LS-SS compared to Casp6-WT-LS-SS [3]: 1.4 fold
- inhibition model (best global fit), Casp6-L200A-LS-SS [3, 4]: noncompetitive (mixed) model inhibition
- IC50 ([3]; copurified LS and SS, read-out: IC50 of C13 for Casp6-L200A-LS-SS (Fig. 4g)): 23.4 ± 4.5 µM
- Ki [3, 5]: 6.82 µM and 6.8 µM
Structure (SMILES): COC(=O)c1cc(CNC(=O)C2Cc3ccccc3O2)cc(NC(=O)c2ccco2)c1 (stereo not drawn) [Compound C13]
